Drawing on a melting point compilation (Tetko et al.; mined from patent text by program, amines drawn as free bases though some values may be those of a salt), this text covers melting point for 64 compounds.

Consider `CSc1nn2c(N3CCN(C)CC3)cc(Cl)nc2c1S(=O)(=O)c1ccccc1`, for which the melting point (commonly the temperature, or range, at which the solid turns liquid) is above 230 °C. Under `Clc1ccc2c(c1)CSc1ccccc1O2` stands 66.8 °C; under `CCOC(=O)C1=Cc2ccsc2S(=O)(=O)N1c1cccc(OC)c1`, 107 to 109 °C; under `CC(C)Oc1ccc(-c2ccc3nnn(Cc4ccc5ncccc5c4)c3n2)cc1F`, 128 to 130 °C. Under `CCN(CC)C(=O)CCc1nc(-c2ccccc2Cl)nc2ccccc12` stands 90 °C; under `c1ccc(OCCSCc2ncc(-c3ccc(OCCN4CCCCCC4)cc3)o2)cc1`, 35 to 38 °C; under `O=C1CC(c2cccc(-n3ccnc3)c2)=Nc2cc(N3CC[C@@H](O)C3)c(-c3ccc(F)cc3)cc2N1`, 155 to 158 °C. Under `COC(=O)c1cccc(NC(=O)c2ccc(OC)c(Nc3cccc(C(F)(F)F)c3)c2)c1` stands 128 to 129 °C. The compound `CCC(CC)Oc1nc(C)nc(Nc2c(C)cc(C)cc2C)c1[N+](=O)[O-]` had a melting point of 112 to 113 °C. Under `COc1ccc2nc3[nH]nc(N)c3cc2c1` stands above 300 °C; under `CCc1ccc2sc3cc(C#N)ccc3c(=O)c2c1`, 198 to 215 °C.

`S=P1(c2ccccc2)CCCC1` displayed a melting point of 74 °C. Under `CNCCCCOc1ccc2c(ccn2-c2ccc(F)cc2)c1` stands 49 to 50 °C.

As for `c1ccc(N(c2ccccc2)c2ccc3c4c(cccc24)CC3)cc1`, the melting point was in the range of 168 to 170 °C. Under `COc1ccc(-c2cccc(Cn3cncn3)c2)cc1Cl` stands 78.2 to 78.4 °C.

The compound `Cc1cc(C2=C(C=O)C(C)(C)CC(C)(C)C2)ccc1F` yielded a melting point of 50.5 to 51.5 °C. The figure for `FC(F)(F)c1cccc(-c2ccnc3ccnn23)c1` is 103 to 104 °C; for `CC(C)N1CC(CO)CC2c3cccc4[nH]cc(c34)CC21` (centres undefined) it is 192 to 194 °C; for `CCCc1n[nH]c2c(=O)[nH]c(-c3ccccc3OCC)nc12` it is 199 to 201 °C.

Compound `CN1CCN(c2nc3sc4c(NCCCN5CCOCC5)ncnc4c3c3c2COC(C)(C)C3)CC1` came in with a melting point of 90.6 to 92.4 °C. Under `COC(=O)Cc1c(C)n(-c2ncnc3cc(Cl)ccc23)c2ccc(OC)cc12` stands 112 to 114 °C.

Take `CCCSc1cc(-c2c[nH]nc2C(F)(F)F)ccc1C(=O)OC`: the melting point lay within 114 to 116 °C. `Cc1nc(-n2cnn(Cc3ccc(C(F)(F)F)o3)c2=O)sc1C(=O)NCc1cccnc1` gave a melting point of 124 to 125 °C. With `c1ccc(CN2CCC(Cc3nc4ccccc4[nH]3)CC2)cc1`, the melting point came to 222 °C.

In the case of `O=C1NC(=O)C(c2ccccc2)(c2c[nH]c3ccccc23)N1` (centres undefined), the melting point was 302 to 303 °C. Under `C=CCC12CCC(=O)C1(C)CCC1c3ccc(OC)cc3CCC12` (centres undefined) stands 75 to 77 °C.

In turn, `COc1ccccc1-c1nc(-c2ccccc2)c2ncc(Cl)cc2n1` registered a melting point of 116 to 117 °C. Under `CC1Oc2c(cc(CN3CCN(c4ccc(C#N)cc4)CC3)cc2C2CC2)NC1=O` (centres undefined) stands 194 to 196 °C; under `c1ccc2c(Nc3ccc4[nH]ncc4c3)nc(-c3ccc4c(c3)CCO4)nc2c1`, 267 to 272 °C.

As for `Cn1c(=O)c2c(ncn2CCCN2CCC(C(=O)c3ccc(F)cc3)CC2)n(C)c1=O`, the melting point was 114 to 119 °C. The figure for `Cc1oc(-c2ccccc2)nc1CCC(=O)c1ccc(CCC2OC(=O)NC2=O)cc1` (centres undefined) is 173 to 174 °C; for `O=C1CC(c2ccccc2)NC(=O)C1C(=O)c1ccccc1F` (centres undefined) it is 115 to 116 °C. For the compound `O=Cc1ccc(C(=O)O)c(SCc2ccccc2)c1`, the melting point lay in the range of 182 to 190 °C. Under `C/C=C/C(=O)OC(COc1ccc(C(=O)c2ccccc2)c(O)c1)COc1ccc(C(=O)c2ccccc2)c(O)c1` stands 99 to 103 °C.

`COc1ccc(Cc2sc3ccccc3c2-c2ccc(-c3ccc(OC(Cc4ccccc4)C(=O)O)cc3)cc2)c(OC)c1` (centres undefined) returned a melting point of 70 to 72 °C. The figure for `CC(C)(O)Cn1c(CON)nc2c(N)nc3ccccc3c21` is 178 to 179 °C. `CCCCOc1cc(/C=C(\OCC)C(=O)O)ccc1OCCc1ccc(OCC)c(F)c1` registered a melting point of 119 °C. For the compound `COc1ccc(-c2nc(-c3ccccc3)c3ncc(Cl)cc3n2)cc1`, the melting point was in the range of 193 to 194 °C. The figure for `CCCCCNc1nc(N(C)Cc2ccccc2)c2ncn(CC(=O)O)c2n1` is 134 to 142 °C; for `CC(C)(C)c1cc(CCc2cc(F)cc(F)c2NC(=O)NC23CC4CC(CC(C4)C2)C3)cc(C(C)(C)C)c1O` it is 218 to 220 °C; for `COC(=O)c1cc(O)cc(C(=O)CS(C)=O)c1` (centres undefined) it is 144 to 150 °C. The figure for `Oc1ccc(-c2cc3c(Oc4ccc(Cl)cc4)cncc3s2)cc1` is 213 to 215 °C. Under `COC(=O)C1C(c2ccccc2)C2(C(=O)OC)C(C)=NC1(C)CC2C[Si](C)(C)C` (centres undefined) stands 152 to 155 °C; under `CCOC(=O)Nc1c(C)cc(Cc2cnc(N)nc2N)cc1C`, 192 to 193 °C. For the compound `CCOC(=O)Cc1cc(OC)c2c(c1)C1(O)C(=O)c3ccccc3C1(O)O2` (centres undefined), the melting point fell in the range of 133 to 136 °C. The figure for `Sc1c(Br)cc(Br)cc1Br` is 114 to 116 °C; for `Cc1ccccc1-c1c(CNC(=O)Nc2ccc(F)cc2F)oc2ccc(Cl)cc12` it is 178 to 180 °C. In the case of `CC(C)N1C(=O)c2ccccc2C1CC(C)(C)O` (centres undefined), the melting point is 82 to 84 °C.

`COc1c(C)c2c(c(O)c1C/C=C1\CCC(C(=O)O)C1)C(=O)OC2` (centres undefined) returned a melting point of 128 to 130 °C. Under `O=C(NC(CCc1ccccc1)c1nnco1)c1ccc2[nH]c(-c3ccncc3)nc2c1` (centres undefined) stands 103 °C; under `Cn1c([N+](=O)[O-])cnc1-c1nc(C=O)cs1`, 180 to 182 °C; under `COc1ccc2[nH]c(C(=O)c3ccccc3)cc2c1`, 159 to 161 °C. Under `CC(C)(C)OC(=O)Nc1cccc(C(=O)OCOC(=O)C(C)(C)C)c1` stands 88 to 89 °C; under `CN1CCC(c2[nH]c(=O)c3ccccc3c2-c2ccccc2)CC1`, 258 to 260 °C. Regarding `Cc1c(Cl)cccc1S(=O)(=O)Nc1nc(CC(=O)N(C)C)cs1`, the melting point came out at 84 °C. Under `CC(C)(C)OC(=O)Nc1ccc(I)cc1[N+](=O)[O-]` stands 92 to 94 °C; under `Oc1cnccc1N=CN1CCCCCC1`, 117 to 118 °C; under `CCc1nn2c(c1Oc1cc(Cl)cc(Cl)c1)CN(Cc1ccc(C#N)cc1)CC2`, 149 to 150 °C.

On to `CC(Br)c1nc2ccccc2c(=O)n1-c1ccc(F)cc1` (centres undefined), for which the melting point worked out at 180 °C. Under `CCOC(=O)C1Cc2cc3c(-c4ccccc4F)noc3c(C)c2O1` (centres undefined) stands 124 to 125 °C. The figure for `N#CCc1ccccc1Oc1ccc(Br)cc1` is 56 to 58 °C; for `O=C(CCCCCl)c1cc2c3c(c1)CCN3C(=O)CC2` it is 110 to 111 °C; for `C=CCC(=C)C(O)C(NC=O)C(=O)OC` (centres undefined) it is 75 to 77 °C. `CCCCCCc1cc2c(cc1CNCC(=O)O)C(=O)CC2` returned a melting point of 70 °C.
